Reference: PubChem BioAssay AID1259407 (Chemical Carcinogenesis Research Information System (CCRIS), 2018)
Entries after “also recorded” stand apart in the source; their conditions may differ. Activity calls are given as the source filed them. The rule behind the calls is not given here.

Test system: CCRIS mutagenicity, Ames/micronucleus/aberration tests
Experiment: CCRIS mutagenicity studies

Measured: mutagenic call

OO
inactive: End Point: IN VITRO MICRONUCLEUS, Test System: CHO CELLS, Metabolic Activation: RAT, LIVER, S-9, AROCLOR 1254 inactive; negative | End Point: IN VITRO MICRONUCLEUS, Test System: HUMAN LYMPHOCYTES, Metabolic Activation: NONE inactive; negative; main effect of h2o2 was necrosis | Test System: AMES SALMONELLA TYPHIMURIUM, Strain/Indicator: SB1111, Metabolic Activation: NONE, Method: PREINCUBATION inactive; negative | Test System: AMES SALMONELLA TYPHIMURIUM, Strain/Indicator: TA92, Metabolic Activation: NONE, Method: PREINCUBATION inactive; negative | Test System: AMES SALMONELLA TYPHIMURIUM, Strain/Indicator: TA98, Metabolic Activation: NONE, Method: PREINCUBATION inactive; negative | Test System: AMES SALMONELLA TYPHIMURIUM, Strain/Indicator: TA98, Metabolic Activation: NONE, Method: STANDARD PLATE inactive; negative | Test System: AMES SALMONELLA TYPHIMURIUM, Strain/Indicator: TA98, Metabolic Activation: RAT, LIVER, S-9, AROCLOR 1254, Method: PREINCUBATION inactive; negative | Test System: AMES SALMONELLA TYPHIMURIUM, Strain/Indicator: TA98, Metabolic Activation: RAT, LIVER, S-9, AROCLOR 1254, Method: STANDARD PLATE inactive; negative | Test System: AMES SALMONELLA TYPHIMURIUM, Strain/Indicator: TA100, Metabolic Activation: NONE, Method: PREINCUBATION inactive; negative | Test System: AMES SALMONELLA TYPHIMURIUM, Strain/Indicator: TA100, Metabolic Activation: RAT, LIVER, S-9, AROCLOR 1254, Method: PREINCUBATION inactive; negative | Test System: AMES SALMONELLA TYPHIMURIUM, Strain/Indicator: TA102, Metabolic Activation: RAT, LIVER, S-9, AROCLOR 1254, Method: PREINCUBATION inactive; negative | Test System: AMES SALMONELLA TYPHIMURIUM, Strain/Indicator: TA1535, Metabolic Activation: NONE, Method: PREINCUBATION inactive; negative | Test System: AMES SALMONELLA TYPHIMURIUM, Strain/Indicator: TA1535, Metabolic Activation: NONE, Method: STANDARD PLATE inactive; negative | Test System: AMES SALMONELLA TYPHIMURIUM, Strain/Indicator: TA1535, Metabolic Activation: RAT, LIVER, S-9, AROCLOR 1254, Method: STANDARD PLATE inactive; negative | Test System: AMES SALMONELLA TYPHIMURIUM, Strain/Indicator: TA1537, Metabolic Activation: NONE, Method: STANDARD PLATE inactive; negative | Test System: AMES SALMONELLA TYPHIMURIUM, Strain/Indicator: TA1537, Metabolic Activation: RAT, LIVER, S-9, AROCLOR 1254, Method: STANDARD PLATE inactive; negative | Test System: AMES SALMONELLA TYPHIMURIUM, Strain/Indicator: TA1538, Metabolic Activation: NONE, Method: STANDARD PLATE inactive; negative | Test System: AMES SALMONELLA TYPHIMURIUM, Strain/Indicator: TA1538, Metabolic Activation: RAT, LIVER, S-9, AROCLOR 1254, Method: STANDARD PLATE inactive; negative | Test System: AMES SALMONELLA TYPHIMURIUM, Strain/Indicator: TA1975, Metabolic Activation: NONE, Method: PREINCUBATION inactive; negative | Test System: AMES SALMONELLA TYPHIMURIUM, Strain/Indicator: YG3001, Metabolic Activation: NONE, Method: PREINCUBATION inactive; negative | Test System: AMES SALMONELLA TYPHIMURIUM, Strain/Indicator: YG3002, Metabolic Activation: NONE, Method: PREINCUBATION inactive; negative | Test System: CHINESE HAMSTER G10, Strain/Indicator: G10 (GPT)/6-THIOGUANINE, Metabolic Activation: NONE inactive; negative | Test System: CHINESE HAMSTER V79 CELLS, Strain/Indicator: V79 CELLS (HPRT)/6-THIOGUANINE, Metabolic Activation: NONE, Method: PREINCUBATION inactive; negative | Test System: CHINESE HAMSTER V-79, Strain/Indicator: V-79 (HPRT)/6-THIOGUANINE, Metabolic Activation: NONE inactive; negative | Test System: CHINESE HAMSTER V-79, Strain/Indicator: V-79/6-THIOGUANINE, Metabolic Activation: NONE, Method: FLASK ASSAY inactive; negative | Test System: E. COLI, Strain/Indicator: WP2, Metabolic Activation: NONE, Method: STANDARD PLATE inactive; negative | Test System: E. COLI, Strain/Indicator: WP2, Metabolic Activation: RAT, LIVER, S-9, AROCLOR 1254, Method: STANDARD PLATE inactive; negative
active: End Point: IN VITRO CHROMOSOMAL ABERRATIONS, Test System: CHO CELLS, Metabolic Activation: NONE active; positive (structural changes) | End Point: IN VITRO CHROMOSOMAL ABERRATIONS, Test System: CHO-K1, Metabolic Activation: NONE active; positive | End Point: IN VITRO CHROMOSOMAL ABERRATIONS, Test System: SYRIAN HAMSTER EMBRYO (SHE) CELLS, Metabolic Activation: NONE active; positive (structural changes) | End Point: IN VITRO MICRONUCLEUS, Test System: CHL/IU CELLS, Metabolic Activation: NONE active; positive | End Point: In vitro micronucleus, Test System: Chinese hamster V79 cells, Metabolic Activation: None active; positive (hibiscus tiliaceus l methanolic extract at doses above 0.010 mg/ml had | End Point: In vitro micronucleus, Test System: Chinese hamster ovary (CHO) cells, Metabolic Activation: None active; positive (lycopene (10, 25 and 50 um) significantly reduced the number of micron | Test System: AMES SALMONELLA TYPHIMURIUM, Strain/Indicator: SB1106, Metabolic Activation: NONE, Method: PREINCUBATION active; positive | Test System: AMES SALMONELLA TYPHIMURIUM, Strain/Indicator: SB1106, Metabolic Activation: NONE, Method: STANDARD PLATE active; positive | Test System: AMES SALMONELLA TYPHIMURIUM, Strain/Indicator: SB1106P, Metabolic Activation: NONE, Method: PREINCUBATION active; positive | Test System: AMES SALMONELLA TYPHIMURIUM, Strain/Indicator: SB1106P, Metabolic Activation: NONE, Method: STANDARD PLATE active; positive | Test System: AMES SALMONELLA TYPHIMURIUM, Strain/Indicator: SB1111, Metabolic Activation: NONE, Method: STANDARD PLATE active; positive | Test System: AMES SALMONELLA TYPHIMURIUM, Strain/Indicator: TA97, Metabolic Activation: NONE, Method: STANDARD PLATE active; positive | Test System: AMES SALMONELLA TYPHIMURIUM, Strain/Indicator: TA97, Metabolic Activation: RAT, LIVER, S-9, PHENOBARBITAL, Method: LIQUID INCUBATION active; positive | Test System: AMES SALMONELLA TYPHIMURIUM, Strain/Indicator: TA97, Metabolic Activation: RAT, LIVER, S-9, PHENOBARBITAL, Method: STANDARD PLATE active; positive | Test System: AMES SALMONELLA TYPHIMURIUM, Strain/Indicator: TA100, Metabolic Activation: NONE, Method: STANDARD PLATE active; positive | Test System: AMES SALMONELLA TYPHIMURIUM, Strain/Indicator: TA100, Metabolic Activation: RAT, LIVER, S-9, AROCLOR 1254, Method: STANDARD PLATE active; positive | Test System: AMES SALMONELLA TYPHIMURIUM, Strain/Indicator: TA104, Metabolic Activation: NONE, Method: PREINCUBATION active; positive | Test System: AMES SALMONELLA TYPHIMURIUM, Strain/Indicator: TA104, Metabolic Activation: NONE, Method: STANDARD PLATE active; positive | Test System: AMES SALMONELLA TYPHIMURIUM, Strain/Indicator: TA1537, Metabolic Activation: RAT, LIVER, S-9, PHENOBARBITAL, Method: LIQUID INCUBATION active; positive | Test System: AMES SALMONELLA TYPHIMURIUM, Strain/Indicator: TA1537, Metabolic Activation: RAT, LIVER, S-9, PHENOBARBITAL, Method: STANDARD PLATE active; positive | Test System: AMES SALMONELLA TYPHIMURIUM, Strain/Indicator: TA2638, Metabolic Activation: NONE, Method: STANDARD PLATE active; positive | Test System: AMES SALMONELLA TYPHIMURIUM, Strain/Indicator: TA2638A, Metabolic Activation: NONE, Method: STANDARD PLATE active; positive | Test System: AMES SALMONELLA TYPHIMURIUM, Strain/Indicator: YG3003, Metabolic Activation: NONE, Method: PREINCUBATION active; positive | Test System: Ames Salmonella typhimurium, Strain/Indicator: TA102, Metabolic Activation: None, Method: Preincubation active; positive (decrease in mutagenicity when 0.99-15.90 mg/plate of chloroform extrac; also recorded: active; positive (dose related decrease in mutagenicity when 1.82-7.30 mg/plate of metha | Test System: Ames Salmonella typhimurium, Strain/Indicator: TA102, Metabolic Activation: Rat, Liver, S-9, Aroclor 1254, Method: Preincubation active; positive (decrease in mutagenicity when 0.99-15.90 mg/plate of chloroform extrac; also recorded: active; positive (decrease in mutagenicity when 0.46 or 0.91 mg/plate of methanol extrac | Test System: CHINESE HAMSTER G12, Strain/Indicator: G12 (GPT)/6-THIOGUANINE, Metabolic Activation: NONE active; positive | Test System: CHINESE HAMSTER V-79, Strain/Indicator: V-79/6-THIOGUANINE, Metabolic Activation: NONE, Method: STANDARD PLATE active; positive | Test System: CHINESE HAMSTER V-79, Strain/Indicator: V-79/8-AZAGUANINE, Metabolic Activation: NONE active; positive | Test System: Chinese hamster ovary cells, Strain/Indicator: EM9 (HPRT)/6-Thioguanine, Metabolic Activation: None active; positive | Test System: E. COLI, Strain/Indicator: WP2 (PKM101), Metabolic Activation: NONE, Method: STANDARD PLATE active; positive | Test System: E. COLI, Strain/Indicator: WP2 UVRA (PKM101), Metabolic Activation: NONE, Method: STANDARD PLATE active; positive | Test System: HCT116 COLON CANCER CELLS, Strain/Indicator: HCT116 CELLS (HPRT)/6-THIOGUANINE, Metabolic Activation: NONE, Method: PREINCUBATION active; positive | Test System: HUMAN T LYMPHOCYTES, Strain/Indicator: PRIMARY CULTURES (HPRT)/6-THIOGUANINE, Metabolic Activation: NONE, Method: PREINCUBATION active; positive | Test System: MOUSE LYMPHOMA, Strain/Indicator: L5178Y (TK+/TK-), Metabolic Activation: NONE, Method: SUSPENSION/PLATE active; positive | Test System: UDS HUMAN FIBROBLASTS, Strain/Indicator: THY INCORP (NON-S-PHASE), Metabolic Activation: NONE, Method: AUTORADIOGRAPHY active; positive | Test System: UDS HUMAN FIBROBLASTS, Strain/Indicator: THY INCORP, Metabolic Activation: NONE, Method: AUTORADIOGRAPHY active; positive
